Source: PubChem BioAssay (NCI)
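96-well plates; 48 h exposure; 5 concentrations. Endpoints by linear interpolation between flanking doses. Not reached: highest tested concentration assigned. At the TGI there is no net growth.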

Test system: U251 CNS
Assay: NCI tumour cell line growth inhibition, 48 h

Row | SMILES | TGI [µM]
1 | COc1ccc(/C=C2\N=C(SC)N(CN3CCOCC3)C2=O)cc1 | > 100
2 | O=C(Nc1nc(C23CC4CC(CC(C4)C2)C3)cs1)c1cc2ccc(O)cc2oc1=O | 28.7
3 | S=c1sc2c(Cl)nc(Cl)nc2n1-c1ccccc1 | 98
4 | Cn1ccc(C(=O)NCCN(CCNC(=O)c2ccn(C)c(=O)c2O)CCNC(=O)c2cccc(=O)n2O)c(O)c1=O | > 100
5 | COc1ccc(P2(=S)OC(C)(C)C(C)(C)O2)cc1 | > 100
6 | CC(C)(C)OC(=O)[C@H]1CCC(=S)N1Cc1ccccc1 | > 100
7 | COc1ccc(S(=O)(=O)c2nnc(S(=O)(=O)Cc3ccccc3)s2)cc1 | 52.3
8 | NC(=O)C12CC3CC(CC(F)(C3)C1)C2 | > 100
9 | CC1CCC(=O)C(C(=O)CC2CC(=O)N(C)C(=O)C2)C1 (configuration not stated) | > 100
10 | COc1ccc(-[n+]2nc(S(=O)(=O)O)c(/C=C/c3ccc(N(C)C)cc3)cc2C#N)cc1 | > 100
11 | CC(=O)Oc1c2c(c(O)c3ccccc13)C(n1cnc3c(ncn3C3OC(CO)C4OC(C)(C)OC43)c1=N)CCC2 (configuration not stated) | 33.3
12 | CN(C)CCC(=O)c1ccccc1 | > 69.4
13 | CCOc1ccccc1NC(=O)C(=O)CC(=O)c1sc(Nc2nnc(-c3ccc(Cl)c(Cl)c3)o2)nc1C | 41.4

Test system: HL-60(TB) leukemia
Assay: NCI tumour cell line growth inhibition, 48 h

Row | SMILES | TGI [µM]
14 | O=c1cc(-c2cccc3ccccc23)[nH]c2ncccc12 | 0.0315
15 | CN1CCOC(c2ccccc2)O1 (configuration not stated) | > 100
16 | CCCNC(=S)NNC(=O)CSc1nc(-c2ccccc2)c(-c2ccccc2)[nH]1 | > 100
17 | CC(=O)c1sc(Nc2nnc(-c3ccc(-c4nnc(Nc5nc(C)c(C(C)=O)s5)o4)cc3)o2)nc1C | > 100
18 | CC(CO)(CO)N1C(=O)C2C3C=CC(C3)C2C1=O (configuration not stated) | > 100
19 | CC1c2c(Cl)nc3ccccc3c2Oc2c1c(Cl)nc1ccccc21 | > 100
20 | COC1(OC)C(N(C)C)=C(Cl)C(=O)/C1=C/C=O | > 100
21 | N#Cc1c2ccccc2cn1-c1ccc(F)cc1 | 24.2
22 | Cc1ccccc1N1C(=O)C2C=CC(n3[nH]c(=O)n(Cc4ccccc4)c3=O)CC2C1=O (configuration not stated) | > 100
23 | CSc1ncnc2c1ncn2CCC(=O)OC(C)(C)C | > 100
24 | CN(CC(=O)O)c1ncc2c(n1)CCCC2 | > 100
25 | Oc1[nH]c2ccccc2c1N=NC(=S)Nc1cccc(Cl)c1 | 49.6
26 | COc1ccc(/C=C2\N=C(SC)N(CN3CCOCC3)C2=O)cc1 | > 100
27 | O=C(Nc1nc(C23CC4CC(CC(C4)C2)C3)cs1)c1cc2ccc(O)cc2oc1=O | 34.6
28 | S=c1sc2c(Cl)nc(Cl)nc2n1-c1ccccc1 | 82.6
29 | Cn1ccc(C(=O)NCCN(CCNC(=O)c2ccn(C)c(=O)c2O)CCNC(=O)c2cccc(=O)n2O)c(O)c1=O | > 100
30 | COc1ccc(P2(=S)OC(C)(C)C(C)(C)O2)cc1 | > 100
31 | O=C(O)[C@@H]1CCS(=O)(=O)N1 | > 100
32 | CC(C)(C)OC(=O)[C@H]1CCC(=S)N1Cc1ccccc1 | > 100
33 | NC(=O)C12CC3CC(CC(F)(C3)C1)C2 | > 100
34 | CC1CCC(=O)C(C(=O)CC2CC(=O)N(C)C(=O)C2)C1 (configuration not stated) | > 100
35 | CC(=O)Oc1c2c(c(O)c3ccccc13)C(n1cnc3c(ncn3C3OC(CO)C4OC(C)(C)OC43)c1=N)CCC2 (configuration not stated) | 22.3
36 | CN(C)CCC(=O)c1ccccc1 | > 64.2
37 | CCOc1ccccc1NC(=O)C(=O)CC(=O)c1sc(Nc2nnc(-c3ccc(Cl)c(Cl)c3)o2)nc1C | > 100

Test system: MDA-N
Assay: NCI tumour cell line growth inhibition, 48 h

Row | SMILES | TGI [µM]
38 | CC(CO)(CO)N1C(=O)C2C3C=CC(C3)C2C1=O (configuration not stated) | > 100
39 | CC(=O)Oc1ccc2c(C)cc(=O)oc2c1OC(C)=O | > 100
40 | CSc1ncnc2c1ncn2CCC(=O)OC(C)(C)C | > 100
41 | CN(CC(=O)O)c1ncc2c(n1)CCCC2 | > 100
42 | Oc1[nH]c2ccccc2c1N=NC(=S)Nc1cccc(Cl)c1 | > 100
43 | COc1ccc(/C=C2\N=C(SC)N(CN3CCOCC3)C2=O)cc1 | > 100
44 | O=C(Nc1nc(C23CC4CC(CC(C4)C2)C3)cs1)c1cc2ccc(O)cc2oc1=O | 41.3
45 | COc1ccc(P2(=S)OC(C)(C)C(C)(C)O2)cc1 | > 100
46 | O=C(O)[C@@H]1CCS(=O)(=O)N1 | > 100
47 | CC(C)(C)OC(=O)[C@H]1CCC(=S)N1Cc1ccccc1 | > 100

Test system: MDA-MB-435
Assay: NCI tumour cell line growth inhibition, 48 h

Row | SMILES | TGI [µM]
48 | O=c1cc(-c2cccc3ccccc23)[nH]c2ncccc12 | 0.00404
49 | CC(CO)(CO)N1C(=O)C2C3C=CC(C3)C2C1=O (configuration not stated) | > 100
50 | CC(=O)Oc1ccc2c(C)cc(=O)oc2c1OC(C)=O | > 100
51 | CSc1ncnc2c1ncn2CCC(=O)OC(C)(C)C | > 100
52 | CN(CC(=O)O)c1ncc2c(n1)CCCC2 | > 100
53 | Oc1[nH]c2ccccc2c1N=NC(=S)Nc1cccc(Cl)c1 | 99.4
54 | COc1ccc(/C=C2\N=C(SC)N(CN3CCOCC3)C2=O)cc1 | > 100
55 | O=C(Nc1nc(C23CC4CC(CC(C4)C2)C3)cs1)c1cc2ccc(O)cc2oc1=O | 31.8
56 | Cn1ccc(C(=O)NCCN(CCNC(=O)c2ccn(C)c(=O)c2O)CCNC(=O)c2cccc(=O)n2O)c(O)c1=O | > 100
57 | COc1ccc(P2(=S)OC(C)(C)C(C)(C)O2)cc1 | > 100
58 | O=C(O)[C@@H]1CCS(=O)(=O)N1 | > 100
59 | CC(C)(C)OC(=O)[C@H]1CCC(=S)N1Cc1ccccc1 | > 100
60 | COc1ccc(S(=O)(=O)c2nnc(S(=O)(=O)Cc3ccccc3)s2)cc1 | 71.8
61 | CC1CCC(=O)C(C(=O)CC2CC(=O)N(C)C(=O)C2)C1 (configuration not stated) | > 100
62 | COc1ccc(-[n+]2nc(S(=O)(=O)O)c(/C=C/c3ccc(N(C)C)cc3)cc2C#N)cc1 | > 100

Test system: MALME-3M melanoma
Assay: NCI tumour cell line growth inhibition, 48 h

Row | SMILES | TGI [µM]
63 | O=c1cc(-c2cccc3ccccc23)[nH]c2ncccc12 | 0.0462
64 | CN1CCOC(c2ccccc2)O1 (configuration not stated) | > 100
65 | CCCNC(=S)NNC(=O)CSc1nc(-c2ccccc2)c(-c2ccccc2)[nH]1 | 95.4
66 | CC(=O)c1sc(Nc2nnc(-c3ccc(-c4nnc(Nc5nc(C)c(C(C)=O)s5)o4)cc3)o2)nc1C | > 100
67 | CC(CO)(CO)N1C(=O)C2C3C=CC(C3)C2C1=O (configuration not stated) | > 100
68 | CC1c2c(Cl)nc3ccccc3c2Oc2c1c(Cl)nc1ccccc21 | > 100
69 | COC1(OC)C(N(C)C)=C(Cl)C(=O)/C1=C/C=O | > 100
70 | CC(=O)Oc1ccc2c(C)cc(=O)oc2c1OC(C)=O | 99.6
71 | N#Cc1c2ccccc2cn1-c1ccc(F)cc1 | 86.1
72 | Cc1ccccc1N1C(=O)C2C=CC(n3[nH]c(=O)n(Cc4ccccc4)c3=O)CC2C1=O (configuration not stated) | > 100
73 | CSc1ncnc2c1ncn2CCC(=O)OC(C)(C)C | > 100
74 | CN(CC(=O)O)c1ncc2c(n1)CCCC2 | > 100
75 | Oc1[nH]c2ccccc2c1N=NC(=S)Nc1cccc(Cl)c1 | 52.3
76 | COc1ccc(/C=C2\N=C(SC)N(CN3CCOCC3)C2=O)cc1 | > 100
77 | O=C(Nc1nc(C23CC4CC(CC(C4)C2)C3)cs1)c1cc2ccc(O)cc2oc1=O | 34.5
78 | S=c1sc2c(Cl)nc(Cl)nc2n1-c1ccccc1 | > 100
79 | Cn1ccc(C(=O)NCCN(CCNC(=O)c2ccn(C)c(=O)c2O)CCNC(=O)c2cccc(=O)n2O)c(O)c1=O | > 100
80 | COc1ccc(P2(=S)OC(C)(C)C(C)(C)O2)cc1 | > 100
81 | O=C(O)[C@@H]1CCS(=O)(=O)N1 | > 100
82 | CC(C)(C)OC(=O)[C@H]1CCC(=S)N1Cc1ccccc1 | > 100
83 | NC(=O)C12CC3CC(CC(F)(C3)C1)C2 | > 100
84 | CC1CCC(=O)C(C(=O)CC2CC(=O)N(C)C(=O)C2)C1 (configuration not stated) | > 100
85 | CC(=O)Oc1c2c(c(O)c3ccccc13)C(n1cnc3c(ncn3C3OC(CO)C4OC(C)(C)OC43)c1=N)CCC2 (configuration not stated) | 23.4
86 | CN(C)CCC(=O)c1ccccc1 | 24.1
87 | CCOc1ccccc1NC(=O)C(=O)CC(=O)c1sc(Nc2nnc(-c3ccc(Cl)c(Cl)c3)o2)nc1C | > 100
